Converted amounts (≈) assume the structure as drawn. The source made the active and inactive calls. No cut-off for these calls is given here.
Experiments:
[1] = Cytotoxicity against mock-infected human MT4 cells after 5 days by MTT assay; format: cell-based
[2] = tested on: Human immunodeficiency virus 2; experiment: Antiviral activity against HIV2 ROD in MT4 cells assessed as inhibition of virus-induced cytopathogenicity by MTT assay; format: functional, organism-based; conditions: Human immunodeficiency virus 2, ROD
[3] = tested on: Human immunodeficiency virus 1; experiment: Antiviral activity against HIV1 3B in CEM cells assessed as inhibition of virus-induced syncytium formation after 4 days by microscopy; format: functional, organism-based; conditions: Human immunodeficiency virus 1, 3B, CCRF-CEM, 96 h
[4] = Selectivity index, ratio of CC50 for human MT4 cells to EC50 for HIV1 3B; format: toxicity, cell-based; conditions: read-out: Ratio CC50/EC50
[5] = Selectivity index, ratio of CC50 for human MT4 cells to EC50 for HIV2 ROD; format: toxicity, cell-based; conditions: read-out: Ratio CC50/EC50
[6] = Selectivity index, ratio of CC50 for human CEM cells to EC50 for HIV1 3B; format: toxicity, cell-based, CCRF-CEM; conditions: read-out: Ratio CC50/EC50
[7] = Cytotoxicity against mock-infected human CEM cells by Coulter counter; format: cell-based; conditions: mock-infected CEM (CCRF-CEM) cells
[8] = Selectivity index, ratio of CC50 for human CEM cells to EC50 for HIV2 ROD; format: toxicity, cell-based, CCRF-CEM; conditions: read-out: Ratio CC50/EC50
[9] = tested on: Human immunodeficiency virus 2; experiment: Antiviral activity against HIV2 ROD in CEM cells assessed as inhibition of virus-induced syncytium formation after 4 days by microscopy; format: functional, organism-based; conditions: Human immunodeficiency virus 2, ROD, CCRF-CEM, 96 h
[10] = tested on: Human immunodeficiency virus 1; experiment: Antiviral activity against HIV1 3B in MT4 cells assessed as inhibition of virus-induced cytopathogenicity by MTT assay; format: functional, organism-based; conditions: Human immunodeficiency virus 1, 3B
[11] = Cytotoxicity against mock-infected human PBMC cells by trypan blue exclusion assay; format: cell-based
[12] = tested on: Human immunodeficiency virus 1; experiment: Antiviral activity against HIV1 3B in PBMC assessed as inhibition of p24 production after 7 days by ELISA; format: functional, organism-based; conditions: Human immunodeficiency virus 1, 3B, 168 h
[13] = Selectivity index, ratio of CC50 for human PBMC cells to EC50 for HIV1 3B; format: toxicity, cell-based; conditions: read-out: Ratio CC50/EC50
[14] = tested on: Human immunodeficiency virus 1; experiment: Antiviral activity against HIV1 3B in MT4 cells assessed as virus p24 antigen production administered at 16 hrs post infection by ELISA; format: functional, organism-based
[15] = tested on: Human immunodeficiency virus 1; experiment: Antiviral activity against HIV1 3B in MT4 cells assessed as virus p24 antigen production administered at 5 hrs post infection by ELISA; format: functional, organism-based

EC50 [3] [µg/mL] | EC50 [9] [µg/mL] | EC50 [12] [µg/mL] | Compound | CC50 at 120 h [1] [µg/mL] | EC50 [2] [µg/mL] | selectivity ratio [4] | selectivity ratio [5] | selectivity ratio [6] | CC50 [7] [µg/mL] | selectivity ratio [8] | EC50 [10] [µg/mL] | CC50 [11] [µg/mL] | selectivity ratio [13] | Activity [14] | Activity [15]
35 (≈ 95.8 µM) | 47.5 (≈ 130 µM) | – | Cn1cc(C(=O)O)c(=O)c2ccc(N3CCN(c4cnccn4)CC3)cc21 | > 125 | 16.4 (≈ 44.7 µM) | > 2 | 8 | > 3 | > 100 | > 2 | 58.2 (≈ 159 µM) | – | – | – | –
0.03 (≈ 0.0791 µM) | 0.06 (≈ 0.158 µM) | 0.051 (≈ 0.134 µM) | Cn1cc(C(=O)O)c(=O)c2cc(N)c(N3CCN(c4ccccn4)CC3)cc21 | 0.84 (≈ 2.21 µM) | 0.097 (≈ 0.256 µM) | 15 | 10 | > 3330 | > 100 | > 1670 | 0.058 (≈ 0.153 µM) | 1.45 (≈ 3.82 µM) | 29 | – | –
1.2 (≈ 3.29 µM) | 1.8 (≈ 4.94 µM) | 1.35 (≈ 3.7 µM) | Cn1cc(C(=O)O)c(=O)c2ccc(N3CCN(c4ccccn4)CC3)cc21 | 65.5 (≈ 180 µM) | > 65.5 | 3.4 | < 1 | > 83 | > 100 | > 56 | 19.2 (≈ 52.7 µM) | > 100 | > 74 | – | –
– | – | – | Cn1cc(C(=O)O)c(=O)c2cc(N)c(N3CCC(c4ccccn4)CC3)cc21 | > 125 | > 125 | – | – | – | – | – | > 125 | – | – | – | –
– | – | – | Cn1cc(C(N)=O)c(=O)c2cc(N)c(N3CCN(c4ccccn4)CC3)cc21 | > 125 | > 125 | – | – | – | – | – | > 125 | – | – | – | –
– | – | – | CCN(CCNc1cc2c(cc1N)c(=O)c(C(=O)O)cn2C)c1ccccn1 | 16.9 (≈ 44.2 µM) | > 16.9 | – | – | – | – | – | > 16.9 | – | – | – | –
– | – | – | Cn1cc(C(=O)NCc2ccc(Cl)cc2)c(=O)c2cc(N)c(N3CCN(c4ccccn4)CC3)cc21 | > 125 | > 125 | – | 1 | – | – | – | > 125 | – | – | – | –
– | – | – | Cn1cc(C(=O)NCc2ccc(F)cc2F)c(=O)c2cc(N)c(N3CCN(c4ccccn4)CC3)cc21 | 32.2 (≈ 63.9 µM) | > 32.2 | < 1 | < 1 | – | – | – | > 32.2 | – | – | – | –
– | – | – | Cn1ccc(=O)c2cc(N)c(N3CCN(c4nc5ccccc5o4)CC3)cc21 | 72.1 (≈ 192 µM) | > 72.1 | < 1 | < 1 | – | – | – | > 72.1 | – | – | – | –
– | – | – | CC(C)c1nc(CN(C)C(=O)N[C@H](C(=O)N[C@@H](Cc2ccccc2)C[C@H](O)[C@H](Cc2ccccc2)NC(=O)OCc2cncs2)C(C)C)cs1 | – | – | – | – | – | – | – | – | – | – | Active | Active
– | – | – | Cn1cc(C(=O)O)c(=O)c2cc(N)c(N3CCNCC3)cc21 | ≥ 94 | > 94 | – | – | – | – | – | > 94 | – | – | – | –
– | – | – | Cc1cn([C@H]2C[C@H](N=[N+]=[N-])[C@@H](CO)O2)c(=O)[nH]c1=O | – | – | – | – | – | – | – | – | – | – | Active | Active
– | – | – | Cn1cc(C(=O)O)c(=O)c2cc(N)c(N3CCN(Cc4ccccn4)CC3)cc21 | > 125 | > 125 | – | – | – | – | – | > 125 | – | – | – | –
0.3 (≈ 0.74 µM) | 0.23 (≈ 0.567 µM) | 0.16 (≈ 0.395 µM) | Nc1cc2c(=O)c(C(=O)O)c[nH]c2cc1N1CCN(c2nc3ccccc3o2)CC1 | 1.95 (≈ 4.81 µM) | 0.28 (≈ 0.691 µM) | 11 | 7 | 11 | 3.17 (≈ 7.82 µM) | 14 | 0.23 (≈ 0.567 µM) | 1.12 (≈ 2.76 µM) | 7 | – | –
– | – | – | Cn1cc(C(=O)O)c(=O)c2cc(N)c(N3CCC(c4ccccn4)C3)cc21 (configuration not stated) | > 90.8 | > 90.8 | < 1 | < 1 | – | – | – | > 90.8 | – | – | – | –

From ChEMBL document CHEMBL1140044, “Structure-activity relationship study on anti-HIV 6-desfluoroquinolones” (J Med Chem, 2008)
